Each block holds one molecule with its values, some of them ahead of it.
Legend:
HCT116 cells [1] = test: MTS growth inhibition assay; assay type: cell-based; details: colorectal HCT116; 5-FU between 0 and 100 μmol/L; 72 hours
Protocol: (§1) The Cell Titer AQueous MTS assay (Promega) is carried out according to the manufacturers guidelines. […] The combination effect is determined by the combination index (CI) method utilizing Calcusyn software (Biosoft, Ferguson, Mo.). Fraction affected (FA) is calculated from the percent growth inhibition: FA=[…]. CI values <1, synergism; 1-1.2, additive and >1.2, antagonism.
(§2) Test compounds are evaluated for their antitumor activity in colorectal cancer cells using the MTS growth inhibition assay. HCT116 and SW620 cells are exposed to increasing concentrations of each agent for 72 hours and growth inhibition is directly compared to vehicle-treated controls. The NSCLC cell lines A549 and H1299 are exposed to increasing concentrations of each agent for 72 hours and growth inhibition is directly compared to vehicle-treated controls.
(§3) MTS growth inhibition assays are performed to evaluate the effectiveness of the test compounds alone and in combination with the fluoropyrimidine thymidylate synthase (TS) inhibitor 5-fluorouracil (5-FU) at inhibiting the growth of colorectal (HCT116 and SW620) cell line models. […] Simultaneous treatment with increasing concentrations of 5-FU and a test compound at fixed concentrations of 25 μmol/L is determined.

SW620 cells = test: MTS growth inhibition assay; assay type: cell-based; details: colorectal SW620; 5-FU between 0 and 100 μmol/L; 72 hours
Protocol: as §1, §2, §3

[2] = molecular target: T1, recombinant human deoxyuridine nucleotidohydrolase (dUTPase) (Homo sapiens, UniProt P33316); test: fluorescence-based dUTPase inhibition assay; assay type: biochemical; details: 5 ng recombinant dUTPase, 50 pmols dUTP, 37° C. for 8 mins
T1 construct: made in house
T1 sequence (P33316 1-164 isoform P33316-2): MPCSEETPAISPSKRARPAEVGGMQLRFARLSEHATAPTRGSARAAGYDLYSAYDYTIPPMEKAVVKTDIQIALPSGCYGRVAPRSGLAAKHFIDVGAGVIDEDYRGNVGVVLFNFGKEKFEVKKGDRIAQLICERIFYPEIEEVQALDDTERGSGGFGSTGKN
From the text: Recombinant human deoxyuridine nucleotidohydrolase (dUTPase) is expressed and purified as described in Ladner R D, Carr S A, Huddleston M J, McNulty D E, Caradonna S J. J Biol Chem. 1996 Mar. 29; 271(13):7752-7. All drugs stocks are aliquoted and diluted as appropriate prior to use. The oligonucleotide primer, templates and fluorophore- and quencher-labeled detection probes are synthesized by Integrated DNA Technologies (Coralville, Iowa), subjected to polyacrylamide gel electrophoresis purification and reconstituted in Omnipur sterile nuclease-free water (EMD Chemicals USA, Gibbstown N.J.) at a stock concentration of 100 μmol/L. The two non-emissive (dark) quenching molecules incorporated into the detection probes include the Iowa black […] (IBFQ; absorption max 531 nm) and ZEN (non-abbreviation; absorption max 532 nm). The fluorescent label utilized is 6-FAM (5′-carboxyfluorescein; excitation max.=494 nm, emission max.=520 nm). Probes are further diluted to a working stock of 10 μmol/L and aliquoted to avoid repeated freeze/thaw cycles. […]
Reaction mixtures contained primer, probe and template at an equimolar final concentration of 0.4 μmol/L. Magnesium chloride (MgCl2) is included at a final concentration of 2 mmol/L. Non-limiting dNTPs are included in the reaction mix in excess at a final concentration of 100 μmol/L (dUTP/dTTP is excluded). […] Thermal profiling and fluorescence detection is performed using a customized thermal program on board a Roche Lightcycler LC480 Instrument II. […] Raw fluorescence spectra for 6-FAM is measured at specified time intervals to follow assay progression on board a Roche LightCycler 480 Software Version 1.5 and exported and analyzed in Microsoft Excel (Microsoft, Redmond Wash.) and Prism (GraphPad Software, La Jolla Calif.). Fluorescence values for blank reactions (limiting dNTP omitted) are subtracted to give normalized fluorescence units (NFU) to account for background fluorescence.
Test compounds are screened in a fluorescence-based assay. […]

H460 cells = test: Colony forming assay; assay type: cell-based; details: non-small cell lung H460; FUdR between 0.5 and 2.5 μmol/L
Protocol: (§4) Colony forming assay showing the ability of colon (SW620, HCT116), non-small cell lung (A549, H460, H1299 and H358) and breast (MCF7) cancer cells to survive and proliferate following transient 24 hour exposure to test compounds, FUdR and combinations are determined. Specifically, cells are seeded at densities between 50 and 100 cells/well in 24-well plates. Twenty-four hours later, cells are treated with increasing concentrations of a rtest compound, a fixed dose of FUdR and combinations of these. After 24 hours, drug is removed, cells are rinsed and allowed to outgrow for 10-14 days. At the conclusion of the outgrowth, cells are fixed in 60% ice cold methanol and stained with 0.1% crystal violet, scanned and counted. Data is presented as percentage of untreated controls (mean±SD). Fraction affected and combination indexes are calculated according to the method of Chou and Talalay where <1 is indicative of a synergistic drug interaction.
(§5) Colony forming assays are performed to evaluate the effectiveness of test compounds alone and in combination with the fluoropyrimidine thymidylate synthase (TS) inhibitor fluorodeoxyuridine (FUdR) at reducing cancer cell viability in colorectal (HCT116), breast (MCF-7) and non-small cell lung (H1299, A549, H358 and H460) cell line models. […] In colorectal cancer cells, concentrations of test compounds ranging e.g., from 3.1 μmol/L to 50 μmol/L are combined with 0.5 μmol/L FUdR in HCT116 cells and 1 μmol/L FUdR in SW620 cells.

HCT116 cells [3] = test: Colony forming assay; assay type: cell-based; details: colorectal HCT116; FUdR between 0.5 and 2.5 μmol/L
Protocol: as §4, §5

H1299 cells = test: Colony forming assay; assay type: cell-based; details: non-small cell lung H1299; FUdR between 0.5 and 2.5 μmol/L
Protocol: as §4, §5

H358 cells = test: Colony forming assay; assay type: cell-based; details: non-small cell lung H358; FUdR between 0.5 and 2.5 μmol/L
Protocol: as §4, §5

MCF-7 cells = test: Colony forming assay; assay type: cell-based; details: breast MCF-7; FUdR between 0.5 and 2.5 μmol/L
Protocol: as §4, §5

A549 cells = test: Colony forming assay; assay type: cell-based; details: non-small cell lung A549; FUdR between 0.5 and 2.5 μmol/L
Protocol: as §4, §5

SMILES: O=c1[nH]cc(F)c(=O)[nH]1 [Example 5-FU, 5-fluorouracil]
growth inhibition (HCT116 cells [1]): dose-dependent increases in growth inhibition
growth inhibition (SW620 cells): dose-dependent increases in growth inhibition

IC50 [2]: ~100 µM
SMILES: C[C@@H](NS(=O)(=O)CCc1cccc(N2CC(=O)NC2=O)c1)c1ccc(F)c(OCC2CC2)c1 [Example 79, (R)—N-(1-(3-(cyclopropylmethoxy)-4-fluorophenyl)ethyl)-2-(3-(2,4-dioxoimidazolidin-1-yl)phenyl)ethane-1-sulfonamide]

IC50 [2]: 80 µM
SMILES: C[C@@H](NS(=O)(=O)Cc1cccc(CN2CC(=O)NC2=O)c1)c1ccc(F)c(OCC2CC2)c1 [Example 81, (R)—N-(1-(3-(cyclopropylmethoxy)-4-fluorophenyl)ethyl)-1-(3-((2,4-dioxoimidazolidin-1-yl)methyl)phenyl)methanesulfonamide]

IC50 [2]: 2.2 µM
SMILES: C[C@@H](NS(=O)(=O)Cc1ccc(CN2CC(=O)NC2=O)cc1)c1ccc(F)c(OCC2CC2)c1 [Example 82, (R)—N-(1-(3-(cyclopropylmethoxy)-4-fluorophenyl)ethyl)-1-(4-((2,4-dioxoimidazolidin-1-yl)methyl)phenyl)methanesulfonamide]

SMILES: O=c1[nH]c(=O)n([C@H]2C[C@H](O)[C@@H](CO)O2)cc1F [FUdR, fluorodeoxyuridine]
colonies formed (H460 cells): dose-dependent decreases in colonies formed
colonies formed (HCT116 cells [3]): dose-dependent decreases in colonies formed
colonies formed (H1299 cells): dose-dependent decreases in colonies formed
colonies formed (H358 cells): dose-dependent decreases in colonies formed
colonies formed (MCF-7 cells): dose-dependent decreases in colonies formed
colonies formed (A549 cells): dose-dependent decreases in colonies formed
